Results: patent US20250085273A1, “NOVEL RAPID DRUG DISCOVERY FOR SEPSIS AND AGENTS FOR USE AS SEPSIS THERAPY” (priority 2023, published 2025)
Like-named read-outs stand apart in the source and are kept apart here.

How the values were obtained:
[1] = tested on: zebrafish (4 dpf pre-treated, LPS exposure at 5-dpf) challenged with P. aeruginosa LPS 60 μg/mL; type: in vivo, Danio rerio; settings: for Pre-Treatment Rescue (n = 16): 24-hour drug pre-treatment; for Pre-Treatment Rescue (n = 16) / No Pre-Treatment Rescue (n = 16): P. aeruginosa LPS 60 μg/mL; for No Pre-Treatment Rescue (n = 16): no 24-hour drug pre-treatment; for 24 hour Tail Edema, No-Drug Pretreatment / 24 Hour Mortality and Tail Edema, Drug Pretreatment / 24 Hour Mortality, Drug Pretreatment / 24 hour Tail Edema, Drug Pretreatment / 24 Hour Mortality and Tail Edema, No-Drug Pretreatment / 24 Hour Mortality, No Drug Pretreatment: number of n = 16 fish; for 24 hour Tail Edema, No-Drug Pretreatment: 10 μM drug with LPS 60 μg/mL; for 24 hour Tail Edema, No-Drug Pretreatment / 24 Hour Mortality and Tail Edema, No-Drug Pretreatment / 24 Hour Mortality, No Drug Pretreatment: no 24-hour pre-treatment; for 24 Hour Mortality and Tail Edema, Drug Pretreatment / 24 Hour Mortality, Drug Pretreatment: 24-hour 10 μM drug pre-treatment; for 24 hour Tail Edema, Drug Pretreatment: 24-hour 10 μM drug pre-treatment before LPS 60 μg/mL
Procedure, shortened: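 PTU-treated 4 dpf zebrafish embryos received a 24-hour drug pre-treatment at 28.5 °C, alongside an untreated parallel group, before challenge at 5 dpf with P. aeruginosa LPS at 60 μg/mL. Tail edema and mortality were scored at 6 and 24 h post exposure, followed by a neurobehavioral test.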

[2] = tested on: 3-dpf Zebrafish Embryos Challenged with LPS (P. aeruginosa 60 μg/mL); type: in vivo, Danio rerio; settings: P. aeruginosa LPS 60 μg/mL, compound 10 μM; for Percent Rescue (Mort + Tail Edema): 3-dpf embryos, n=16; for Percent Rescue (Mort + Tail Edema) / rescue of tail edema and mortality (sepsis rescue rate) at 3-dpf: 24 hours; for 3 dpf Embryos Percent Rescue (Mort + Tail Edema): initial 3-dpf screen shown for reference
Procedure, shortened: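 3-dpf PTU-treated AB zebrafish embryos exposed to 60 μg/mL P. aeruginosa LPS plus 10 μM compound (final) at 28.5 °C, n=16 per compound. Tail edema and mortality scored at 6 and 24 h post exposure; rescue judged against LPS-only controls at 24 h.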

[3] = molecular target: hERG potassium ion channel current (IhERG) (Homo sapiens, UniProt Q12809); settings: cited from earlier work
[4] = tested on: 5-dpf zebrafish larvae challenged with P. aeruginosa LPS 60 μg/mL; type: in vivo, Danio rerio; settings: compound 10 μM; for 5 dpf Embryos Percent Rescue (Mort + Tail Edema): 5-dpf larvae
[5] = tested on: 5-dpf zebrafish challenged with K. Pneumoniae LPS (45 μg/mL); assay: Challenge with K. Pneumoniae LPS (45 μg/mL), 5-dpf zebrafish; type: in vivo, Danio rerio
Experimental: These tests followed the same methods described in the 5-dpf zebrafish confirmatory testing, but K. Pneumoniae LPS (45 μg/mL final in well concentration) was used instead of P. aeruginosa LPS.

human recombinant 5-HT2A = human recombinant 5-HT2A (Homo sapiens, UniProt P28223); settings: cited from earlier work
human recombinant 5-HT2C = molecular target: T1, human recombinant 5-HT2C (Homo sapiens, UniProt P28335); settings: cited from earlier work
T1 sequence (P28335 33-458): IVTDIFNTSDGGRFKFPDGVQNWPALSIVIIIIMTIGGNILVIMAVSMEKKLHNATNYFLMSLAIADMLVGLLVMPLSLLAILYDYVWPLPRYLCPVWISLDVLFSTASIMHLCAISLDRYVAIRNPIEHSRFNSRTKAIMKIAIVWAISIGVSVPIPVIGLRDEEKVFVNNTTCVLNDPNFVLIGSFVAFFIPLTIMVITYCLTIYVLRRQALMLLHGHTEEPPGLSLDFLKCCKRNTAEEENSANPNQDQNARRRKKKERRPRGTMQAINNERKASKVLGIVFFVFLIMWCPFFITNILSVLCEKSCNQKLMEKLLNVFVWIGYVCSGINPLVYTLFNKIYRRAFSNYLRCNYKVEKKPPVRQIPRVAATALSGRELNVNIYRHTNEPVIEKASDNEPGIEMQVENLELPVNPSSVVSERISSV

[6] = tested on: larval zebrafish locomotor behavior; type: in vivo
Source text: This assay is a modified version of the larval zebrafish light dark transition assay with an added UV light (wavelength=295 nm) phase to capture any compound specific neurological effects to UV light. (Basnet et al., 2019, Kokel et al., 2013, Peng et al., 2016). The light period assesses deviations from normal locomotor behavior while the rapid transition to dark provides a measure of stress response by identifying any deviations from the normal heightened locomotor activity caused by the transition to dark. The neurobehavioral assay used a custom trial control script created by Noldus Ethovision XT 15, and it was executed in a Noldus DanioVision system. Zebrafish larvae in microplates were allowed to habituate in the DanioVision system for 5 minutes under white light conditions prior to the start of the test. The neurobehavioral assay consisted of three phases: a 3-minute light phase (white light), a 3-minute dark phase (no light) and a 5 second UV phase (UV light only). The Danio Vision system captured larval zebrafish movement throughout this assay at 30 frames per second.
(§1) LC50s for the LPS tests were determined using the Trimmed Spearmen-Karber method (Hamilton et al., 1977). The tail edema and mortality data from the initial and confirmatory drug testing was analyzed using GraphPad Prism 9 using Fisher's Exact Test. Each drug treatment group was compared pairwise with the on-board positive control group on each test plate. Statistical significance was determined with values of p≤0.05. Neurological behavioral testing data was analyzed by Ethovision software that produced an activity analysis profile per frame for each well of the 96 well plates. Any dead embryos were removed from the data set, and the remaining data set was imported into Excel. The offset function in Excel was used to average the percentage of pixel change per 0.1 s for each plate. […] The behavioral data was then statistically analyzed by drug per phase using a 2 tailed t-test to determine statistical significance p≤0.01.

5-HT2B = 5-HT2B (Homo sapiens, UniProt P41595); settings: cited from earlier work
D2 receptor = D2 receptor (Homo sapiens, UniProt P14416); settings: read-out: IC50 for D2 receptor; cited from earlier work
[7] = tested on: larval zebrafish exposed to Pseudomonas aeruginosa 60 μg/mL lipopolysaccharide (LPS); assay: Zebrafish endotoxicity/sepsis model drug screening, statements without larval stage; type: in vivo, Danio rerio
Source text: To identify potential sepsis drug candidates, an optimized larval zebrafish model of endotoxicity/sepsis was used to screen commercial libraries of U.S. Food and Drug Administration (FDA)-approved drugs and other active pharmaceutical ingredients (API) known to affect pathways implicated in the initiation and progression of sepsis in humans (i.e., inflammation, mitochondrial dysfunction, coagulation, and apoptosis). In this model, endotoxicity was induced in 3- and 5-day post fertilization larval zebrafish (characterized by mortality and tail fin edema (vascular leakage)) by immersion exposure to Pseudomonas aeruginosa 60 μg/mL lipopolysaccharide (LPS) for 24 hours, then screened for the rescue potential of 644 selected drugs simultaneously with LPS at 10 μM. After LPS exposure, a neurobehavioral assay (light-dark test) was performed to further evaluate rescue from endotoxicity and to determine possible off-target drug side effects.

[8] = tested on: zebrafish exposed to P. aeruginosa LPS; assay: Model compound testing in the optimized zebrafish sepsis model (varying LPS dose ranges); type: in vivo, Danio rerio
Experimental: Three sources of LPS were evaluated: E. coli 0111:B4, P. aeruginosa Sigma L9143, and K. pneumoniae. E. coli 0111:B4 LPS was selected as the reference LPS used by Philip et al. (2017). P. aeruginosa LPS is commonly associated with infections in hospitals, accounting for an estimated 32,600 cases and resulting in an estimated 2,700 deaths in 2017 (CDC Report 2019). P. aeruginosa infections are also a common cause of sepsis in both patients with severe burns and immunocompromised patients. K. pneumoniae LPS has military relevance related to battlefield injury infections (Kiley et al., 2021). Initial range finding LC50 tests with larval zebrafish were conducted for each LPS strain at both 3-dpf and 5-dpf. […] (E. coli 0111:B4 was also tested at higher concentrations, 400, 800, and 1000 μg/mL due a lack of toxicity within the initial dose range.) Well plates were then covered with parafilm and placed into an incubator at 28.5° C. for 24 hours. After 6 and 24 hours, the plates were removed and scored for mortality, tail edema, and ROS production. The tail edema endpoint evaluates vascular leakage from caudal fin in response to LPS exposure (FIG. 2). ROS production was determined as described by Philip et al. (2017) by adding 2,7-dichloroflurescein diacetate (100 μM) to the wells containing the zebrafish larvae and incubating them in a 100% dark photoperiod incubator at 28.5° C. for one hour. Florescent images of the incubated zebrafish were then captured with a Keyence BZ-X710 fluorescent microscope using 10× objective with a GFP filter and fixed 1/15 second exposure for all imaging. […] Results from the LPS toxicity testing and endpoint screening were used to develop the optimized testing procedure through evaluation in selected model compounds, as described in the next section and in the results.
The optimized zebrafish sepsis model was evaluated against compounds previously shown to have efficacy in previous zebrafish sepsis models: fasudil, hydrocortisone, dexamethasone, and fisetin. Fasudil, an anti-vascular leakage compound (inhibitor of the RhoA/Rho-kinase pathway) was shown by Philip et al. (2017) to rescue zebrafish from LPS-induced mortality, ROS production, and tail fin edema. Fasudil also rescued LPS-induced vascular leakage in murine models of experimental sepsis (Li et al., 2010) and reduced acute lung injury in septic rats through inhibition of the Rho/ROCK signaling pathway (Wang et al., 2018). […] Endpoints evaluated with model compounds included mortality, tail edema, and ROS at 6- and 24-hours post exposure to varying dose ranges of LPS.
as §1, with “Excel.” for “Excel. The offset function in Excel was used to average the percentage of pixel change per 0.1 s for each plate.”

Sequence of hERG potassium ion channel current (IhERG) (Q12809 whole entry): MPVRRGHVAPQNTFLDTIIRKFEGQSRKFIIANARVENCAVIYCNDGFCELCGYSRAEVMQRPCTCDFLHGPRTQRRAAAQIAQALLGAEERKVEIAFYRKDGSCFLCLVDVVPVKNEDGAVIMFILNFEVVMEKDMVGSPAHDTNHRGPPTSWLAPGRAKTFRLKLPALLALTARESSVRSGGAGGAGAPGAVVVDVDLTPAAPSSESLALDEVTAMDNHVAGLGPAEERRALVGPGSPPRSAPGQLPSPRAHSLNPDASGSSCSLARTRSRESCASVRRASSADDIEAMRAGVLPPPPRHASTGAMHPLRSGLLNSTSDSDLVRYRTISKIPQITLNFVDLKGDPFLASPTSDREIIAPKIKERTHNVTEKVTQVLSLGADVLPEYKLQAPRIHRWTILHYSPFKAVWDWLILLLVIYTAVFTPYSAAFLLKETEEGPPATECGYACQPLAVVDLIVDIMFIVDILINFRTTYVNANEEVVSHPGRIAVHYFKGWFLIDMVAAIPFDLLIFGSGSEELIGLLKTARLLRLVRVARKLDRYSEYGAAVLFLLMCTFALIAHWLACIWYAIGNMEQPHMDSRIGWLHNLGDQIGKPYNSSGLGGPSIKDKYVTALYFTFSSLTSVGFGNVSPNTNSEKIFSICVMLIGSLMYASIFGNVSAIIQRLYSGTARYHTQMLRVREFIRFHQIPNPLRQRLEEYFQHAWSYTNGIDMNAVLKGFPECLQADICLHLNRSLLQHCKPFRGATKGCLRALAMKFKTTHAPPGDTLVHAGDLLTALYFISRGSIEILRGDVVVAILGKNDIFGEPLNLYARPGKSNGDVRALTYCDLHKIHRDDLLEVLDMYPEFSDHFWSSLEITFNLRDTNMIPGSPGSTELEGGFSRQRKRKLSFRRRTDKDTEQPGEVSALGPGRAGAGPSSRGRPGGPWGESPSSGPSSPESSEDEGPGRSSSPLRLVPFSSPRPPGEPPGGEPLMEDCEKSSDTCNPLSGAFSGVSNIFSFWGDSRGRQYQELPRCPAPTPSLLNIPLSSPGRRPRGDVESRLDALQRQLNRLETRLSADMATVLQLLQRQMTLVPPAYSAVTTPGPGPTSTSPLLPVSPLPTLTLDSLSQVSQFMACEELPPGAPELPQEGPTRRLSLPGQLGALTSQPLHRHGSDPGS
Sequence of 5-HT2B (P41595 whole entry): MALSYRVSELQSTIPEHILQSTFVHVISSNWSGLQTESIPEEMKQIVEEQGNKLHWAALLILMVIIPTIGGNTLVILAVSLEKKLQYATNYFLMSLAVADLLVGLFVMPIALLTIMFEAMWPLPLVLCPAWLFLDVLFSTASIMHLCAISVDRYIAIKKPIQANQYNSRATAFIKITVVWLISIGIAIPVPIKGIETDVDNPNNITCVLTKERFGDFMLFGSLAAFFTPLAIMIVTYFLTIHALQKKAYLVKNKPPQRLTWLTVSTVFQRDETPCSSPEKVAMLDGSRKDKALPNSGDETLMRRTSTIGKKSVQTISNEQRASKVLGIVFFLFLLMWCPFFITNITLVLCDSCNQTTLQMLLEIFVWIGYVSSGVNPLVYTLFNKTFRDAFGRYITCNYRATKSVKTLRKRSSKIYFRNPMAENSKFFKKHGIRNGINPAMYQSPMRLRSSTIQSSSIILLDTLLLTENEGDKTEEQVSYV
Sequence of D2 receptor (P14416 whole entry): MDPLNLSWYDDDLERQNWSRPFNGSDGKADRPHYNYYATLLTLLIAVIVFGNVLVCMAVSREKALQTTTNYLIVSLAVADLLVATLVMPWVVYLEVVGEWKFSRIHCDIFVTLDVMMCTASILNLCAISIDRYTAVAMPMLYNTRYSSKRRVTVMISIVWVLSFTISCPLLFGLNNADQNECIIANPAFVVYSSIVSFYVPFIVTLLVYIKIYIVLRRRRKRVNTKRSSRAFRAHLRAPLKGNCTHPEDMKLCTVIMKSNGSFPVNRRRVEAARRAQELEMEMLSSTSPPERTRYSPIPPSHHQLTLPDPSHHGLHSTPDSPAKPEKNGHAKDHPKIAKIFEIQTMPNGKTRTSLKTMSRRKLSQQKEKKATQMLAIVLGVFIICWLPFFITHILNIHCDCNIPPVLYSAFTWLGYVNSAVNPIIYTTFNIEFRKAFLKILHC
Sequence of human recombinant 5-HT2A (P28223 whole entry): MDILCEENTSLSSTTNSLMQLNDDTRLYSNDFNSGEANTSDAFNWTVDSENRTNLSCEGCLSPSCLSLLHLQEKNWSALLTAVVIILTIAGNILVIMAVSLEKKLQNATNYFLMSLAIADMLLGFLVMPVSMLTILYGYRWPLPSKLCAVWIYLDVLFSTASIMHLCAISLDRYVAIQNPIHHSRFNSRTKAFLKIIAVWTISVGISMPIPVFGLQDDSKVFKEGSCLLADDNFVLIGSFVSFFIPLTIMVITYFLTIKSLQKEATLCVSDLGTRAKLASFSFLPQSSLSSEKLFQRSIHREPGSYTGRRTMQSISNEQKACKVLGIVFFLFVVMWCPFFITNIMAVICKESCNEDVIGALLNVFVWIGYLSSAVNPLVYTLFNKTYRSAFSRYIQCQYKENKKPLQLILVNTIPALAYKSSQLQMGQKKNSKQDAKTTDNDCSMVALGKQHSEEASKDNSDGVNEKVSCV

Structure (SMILES): O=C(c1ccc(F)cc1)C1CCN(CCn2c(=O)[nH]c3ccccc3c2=O)CC1 [Compound 88, Ketanserin]
- Pre-Treatment Rescue (n = 16) [1]: 100%
- No Pre-Treatment Rescue (n = 16) [1]: 100%
- 24 hour Tail Edema, No-Drug Pretreatment [1]: 0 fish
- 24 Hour Mortality and Tail Edema, Drug Pretreatment [1]: 0 fish
- 24 Hour Mortality, Drug Pretreatment [1]: 0 fish
- 24 hour Tail Edema, Drug Pretreatment [1]: 0 fish
- 24 Hour Mortality and Tail Edema, No-Drug Pretreatment [1]: 0 fish
- 24 Hour Mortality, No Drug Pretreatment [1]: 0 fish
- Percent Rescue (Mort + Tail Edema) [2]: 100%
- rescue of tail edema and mortality (sepsis rescue rate) at 3-dpf [2]: 100%
- 3 dpf Embryos Percent Rescue (Mort + Tail Edema) [2]: 100%
- IC50 [3]: 110 nM
- 5 dpf Embryos Percent Rescue (Mort + Tail Edema) [4]: 81%
- rescue of tail edema and mortality (sepsis rescue rate) at 5-dpf [4]: 81%
- rescue of tail edema and mortality (sepsis rescue rate) at 5-dpf ([4]; listed as ketanserin): 100%
- rescue of tail edema and mortality [5]: 88%

Structure (SMILES): CCCCCNC(=N)N/N=C/c1c[nH]c2ccc(OC)cc12 [Compound 400, Tegaserod (maleate)]
- Pre-Treatment Rescue (n = 16) [1]: 100%
- No Pre-Treatment Rescue (n = 16) [1]: 88%
- 24 hour Tail Edema, No-Drug Pretreatment [1]: 1 fish
- 24 Hour Mortality and Tail Edema, Drug Pretreatment [1]: 0 fish
- 24 Hour Mortality, Drug Pretreatment [1]: 0 fish
- 24 hour Tail Edema, Drug Pretreatment [1]: 0 fish
- 24 Hour Mortality and Tail Edema, No-Drug Pretreatment [1]: 2 fish
- 24 Hour Mortality, No Drug Pretreatment [1]: 1 fish
- pKi 5-HT2A (human recombinant 5-HT2A): 7.5
- Percent Rescue (Mort + Tail Edema) [2]: 100%
- rescue of tail edema and mortality (sepsis rescue rate) at 3-dpf [2]: 100%
- 3 dpf Embryos Percent Rescue (Mort + Tail Edema) [2]: 100%
- pKi 5-HT2C (human recombinant 5-HT2C): 7.0
- light/dark neurobehavioral testing, difference from negative controls ([6]; after LPS exposure, with and without drug pre-treatment): little to no difference from negative controls
- Post Test Behavioral Assay ([6]; after pre-treatment test LPS exposure): Normal
- pKi 5-HT2B (5-HT2B): 8.4
- 5 dpf Embryos Percent Rescue (Mort + Tail Edema) [4]: 100%
- rescue of tail edema and mortality (sepsis rescue rate) at 5-dpf [4]: 100%
- rescue of tail edema and mortality [5]: 100%

Structure (SMILES): CN1CCN(CCCN2c3ccccc3Sc3ccc(C(F)(F)F)cc32)CC1 [Trifluoperazine]
- IC50 (D2 receptor): 1.2 nM

Structure (SMILES): C[C@]12CCC(=O)C=C1CC[C@@H]1[C@@H]2[C@@H](O)C[C@@]2(C)[C@H]1CC[C@]2(O)C(=O)CO [hydrocortisone]
- rescue at 6-hour exposure time point ([7]; 6-hour exposure time point): showed rescue early
- rescue by 24 hours post exposure ([7]; 24 hours post exposure): failed to show any level of rescue
- efficacy (mortality) at 6 hours ([8]; 6 hours post LPS exposure): some efficacy noted
- mortality at 24 hours post exposure ([8]; 24 hours post LPS exposure): increased mortality over no treatment
